Results published in BigSolDB 2.1.

Cc1ncc([N+](=O)[O-])n1CCO
solubility (mole fraction)
Details | 298.15 K | 303.15 K | 308.15 K | 313.15 K | 318.15 K | 323.15 K | 328.15 K | 333.15 K
in transcutol | 0.0207 | 0.0227 | 0.0244 | 0.0263 | 0.0283 | 0.0303 | 0.033 | 0.0361
in water | 0.00111 | 0.00119 | 0.00128 | 0.00137 | 0.00147 | 0.00159 | 0.0017 | 0.00182
